This is an account of results in US12427346B2, “P62 ligand compound, and composition for preventing, ameliorating or treating proteinopathies comprising the same” (AUTOTAC INC., priority 2018, dated 2025).

In experiment [1] the test system is LC3. The experiment in a line: Autophagy activity in cultured cells by immunoblotting, concentration series (Experimental Example 2). It counts as cell-based, human. The following applies: HeLa cells; 1, 2, 5, 10 and 20 μM, 24 hours; immunoblot, FIG. 3. How it is done:
In order to evaluate the autophagy activity efficacy by the compounds (Examples 1-25), HeLa cell line, which is a cell line derived from a cervical cancer patient, was cultured using a DMEM medium containing 10% FBS and 1% streptomycin/penicillin in an incubator with 5% carbon dioxide. As the representative compounds among the present compounds, the compounds of Examples 1, 2, 3, 5, 6, 7, 8, 9, 12 and 13 (Example 5 (YTK-1005), Example 1 (YTK-1105), Example 6 (YTK-1205), Example 7 (YTK-1305), Example 2 (YTK-2205), Example 3 (YTK-3305), Example 8 (YTK-105), Example 9 (YTK-205), Example 14 (YTK-1108), Example 12 (YT 5-7), Example 13 (YT 5-8)), Example 20 (ATB10041), Example 21 (ATB10042), Example 22 (ATB10043), Example 23 (ATB10044), Example 24 (ATB10045), and Example 25 (ATB10046)) were selected. In order to measure autophagy activity according to the treatment with these selected representative compounds, the respective cells were dispensed into 6 well plates. Additional cultures were performed for 24 hours so that the cells were completely attached to the surface of the plate. To find the concentration at which the respective compounds could increase the phenomenon of autophagy, the test compounds were diluted at 1, 2, 5, 10 and 20 μM and treated. After treatment with the respective compounds, the cells were cultured again in a cell incubator for 24 hours, and then the cells were collected. To extract proteins from the collected cells, 100 ul of lysis buffer (20 mM Tris (pH 7.4), 150 mM NaCl, 1% Triton X-100, 2 mM NaF, 2 mM EDTA, 2 mM beta-glycerophosphate, 5 mM sodium orthovanadate, 1 mM PMSF, leupeptin, aprotinin) was injected into each sample, and cells were lysed. Based on the measured total protein concentration, a sample buffer was added to each sample and allowed to react at 100° C. for 5 minutes. 5 ul was taken from the samples after the reaction, and dispensed into each well of acrylamide gel, and then immunoblotting was performed.
In general terms: Immunoblotting shows a protein as a band on a membrane.

Another experiment has as its system p62 and LC3. The experiment is described as follows: Autophagy activity by immunofluorescence staining and confocal microscopy (Experimental Example 5). As to conditions: HeLa cells, 5 uM, 24 hours, FIG. 6. The experiment is classed as cell-based, human. How it is done: In order to confirm the p62 protein activity and the activity level of autophagy phenomenon by the compounds (Examples 1-25), immunofluorescence staining was performed using p62 and LC3 as markers. In order to confirm the p62 activity and the activity level of autophagy phenomenon by new p62 ligands and isomers thereof in cultured cells, HeLa cell line, which is a cell line derived from cervical cancer patient, was treated with the novel p62 ligand compounds (YTK-1205, YTK-1305, YTK-2205, YTK-3305, YTK-105, YTK-205, YT 5-1, YT 9-1, YT 5-2, YT 9-2, YT 8-2, YT 8-1, YTK-107, YTK-207) and cultured. Thereafter, as markers of the autophagy phenomenon, the expression level and location of LC3 puncta and the local co-existence with p62 puncta were observed.
For immunofluorescence staining, a cover glass was placed on a 24-well plate, cells were dispensed, cultured for 24 hours, and then treated with 5 uM of the novel p62 ligands according to the present invention. For the action of the compounds, additional cultures were performed for 24 hours, and then the medium was removed. Cells were fixed using formaldehyde at room temperature. In order to prevent non-specific staining, the cells were allowed to react with a blocking solution at room temperature for 1 hour, and then treated with LC3 antibody diluted at a certain ratio using the blocking solution, and allowed to reacted at room temperature for 1 hour. The antibody-treated cells were washed three times with PBS, and goat-derived secondary antibody was diluted at a certain ratio using the blocking solution, and then allowed to react at room temperature for 30 minutes. The cells were washed again with PBS three times, and for intracellular nuclear staining, the expression level, intracellular puncta formation and intracellular coexistence level of p62 and LC3 were observed through a confocal microscopy after DAPI staining.

The target of a further experiment is T1, p62 protein (Homo sapiens, UniProt Q13501).
T1 construct: endogenous in cells; host or cells: HEK293 (lysate treated with compounds)
The experiment in a line: Oligomerization activity of p62 protein by immunoblotting (Experimental Example 1). It counts as cell-based. As to conditions: HEK293 cell lysate treated with test compounds at room temperature for 2 hours; immunoblot, FIG. 2. From the text:
In order to evaluate the p62 protein oligomerization activity efficacy by the compounds (Examples 1-25), HEK293 cell line, which is human embryonic kidney-derived cell, was collected. As the representative compounds among the present compounds, the compounds of Examples 1, 2, 3, 5, 6, 7, 8, 9, 12, and 13 (Example 10 (YT-5-1), Example 11 (YT-5-2), Example 12 (YT 5-7), Example 13 (YT 5-8), Example 15 (YT-8-7), Example 16 (YT-8-8), Example 17 (YTK-107), Example 18 ([…]), Example 20 (ATB10041), Example 21 (ATB10042), Example 22 (ATB10043), Example 23 (ATB10044), Example 24 (ATB10045) and Example 25 (ATB10046)) were selected. In order to measure intracellular p62 protein activation and oligomerization according to the treatment with these selected representative compounds, the respective cells were dispensed into a 100 pi dish. The cells were collected after further culturing for 24 hours so that the cells were completely attached to the surface of the plate. 100 ul of lysis buffer (20 mM Tris, pH 7.4), 150 mM NaCl, 1% Triton X-100, 2 mM NaF, 2 mM EDTA, 2 mM beta-glycerophosphate, 5 mM sodium orthovanadate, 1 mM PMSF, leupeptin, aprotinin) were injected into each sample and the cells were lysed. Based on the measured total protein concentration, each sample was treated with test compounds at room temperature for 2 hours, and then a sample buffer was added and allowed to react at 95° C. for 10 minutes. 25 ul was taken from the samples after the reaction, and dispensed into each well of acrylamide gel, and then immunoblotting was performed.

Experiment [2] has as its system LC3. The experiment is described as follows: Autophagy activity in cultured cells by immunoblotting, treatment time (Experimental Example 3). The experiment is classed as cell-based, human. The following applies: HeLa cells; 5 μM for 1, 3, 6, 12, 24, 48 hours or 10 μM for 24 hours; immunoblot, FIG. 4. The procedure:
In order to investigate the autophagy activity efficacy by the compounds (Examples 1-25), immunoblotting was performed in the same manner as in Experimental Example 2 using LC3 as a marker. As for the difference, in order to evaluate the treatment time required for activation and the activity retention time, 5 μM of the representative compounds selected among the present compounds (Example 5 (YTK-1005), Example 6 (YTK-1205), Example 7 (YTK-1305), Example 2 (YTK-2205), Example 3 (YTK-3305), Example 14 (YTK-1108), Example 8 (YTK-105), Example 9 (YTK-205)) were treated for 1, 3, 6, 12, 24, 48 hours. On the other hand, 10 μM of the representative compounds selected among the present compounds (Example 10 (YT 5-1), Example 11 (YT 5-2), Example 16 (YT 8-8), Example 15 (YT 8-7), Example 17 (YTK-107), Example 18 (YTK-207), Example 20 (ATB10041), Example 21 (ATB10042), Example 22 (ATB10043), Example 23 (ATB10044), Example 24 (ATB10045), Example 25 (ATB10046)) were treated for 24 hours.

T1 sequence (Q13501 whole entry): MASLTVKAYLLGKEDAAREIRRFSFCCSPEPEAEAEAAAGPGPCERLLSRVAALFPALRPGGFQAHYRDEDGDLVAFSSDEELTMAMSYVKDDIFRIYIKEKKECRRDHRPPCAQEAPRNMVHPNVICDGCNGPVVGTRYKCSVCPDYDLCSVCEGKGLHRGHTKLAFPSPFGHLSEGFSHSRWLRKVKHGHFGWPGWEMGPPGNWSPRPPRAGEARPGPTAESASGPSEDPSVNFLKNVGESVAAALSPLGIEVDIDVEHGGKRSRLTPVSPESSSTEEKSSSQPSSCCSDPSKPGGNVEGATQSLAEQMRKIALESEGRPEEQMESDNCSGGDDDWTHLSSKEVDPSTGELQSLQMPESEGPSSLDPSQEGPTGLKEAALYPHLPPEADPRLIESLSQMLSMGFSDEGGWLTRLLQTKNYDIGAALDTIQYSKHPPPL

Consider `OCCNCc1ccc(OCCc2ccccc2)c(OCCc2ccccc2)c1` [YTK-2205, 2-((3,4-diphenethoxybenzyl)amino)ethan-1-ol], for which the “autophagy activity (level of LC3)” value in the experiment on LC3 [1] is given as “increasing the autophagy activity”. Further, the “p62 activation and oligomerization, delivery to autophagosome, autophagy activity (p62 and LC3 puncta, local coexistence)” value (from here on “p62 activation and oligomerization”) in the experiment on p62 and LC3 was “allow the activation and oligomerization of p62 proteins, and then show the efficacy of delivering them to autophagosome and simultaneously increasing autophagy activity”.

Turning to `OCCNCc1ccc(OCc2ccccc2)c(OCCCc2ccccc2)c1` [YTK-1305, 2-((4-(benzyloxy)-3-(3-phenylpropoxy)benzyl)amino)ethan-1-ol], the “autophagy activity (level of LC3)” value with LC3 [1] is given as “increasing the autophagy activity”. The “p62 activation and oligomerization” value in the experiment with p62 and LC3 is “allow the activation and oligomerization of p62 proteins, and then show the efficacy of delivering them to autophagosome and simultaneously increasing autophagy activity”.

As to `OCCNCc1cccc(OCc2ccc(Cl)cc2)c1` [YT 5-7, 2-((3-((4-chlorobenzyl)oxy)benzyl)amino)ethan-1-ol], at p62 protein, the “p62 protein oligomerization activity (monomer, oligomers and high-molecular aggregates)” value (“p62 protein oligomerization activity” for short) is reported as “increasing the p62 protein oligomerization activity”. The “autophagy activity (level of LC3)” value in the experiment with LC3 [1] was “increasing the autophagy activity”.

For `N=C(N)NCCNCc1cccc(OCCc2ccccc2)c1` [YTK-207], the “p62 protein oligomerization activity” value at p62 protein is listed as “increasing the p62 protein oligomerization activity”. In the experiment on LC3 [2], the “autophagy activity (level of LC3)” value is listed as “increasing the autophagy activity”. Moreover, the “p62 activation and oligomerization” value in the experiment with p62 and LC3 was “allow the activation and oligomerization of p62 proteins, and then show the efficacy of delivering them to autophagosome and simultaneously increasing autophagy activity”.

In the case of `OCCNCc1ccc(OCCCc2ccccc2)c(OCCCc2ccccc2)c1` [YTK-3305, 2-((3,4-bis(3-phenylpropoxy)benzyl)amino)ethan-1-ol], in the experiment with LC3 [1], the “autophagy activity (level of LC3)” value was “increasing the autophagy activity”. Moreover, in the experiment with p62 and LC3, the “p62 activation and oligomerization” value is “allow the activation and oligomerization of p62 proteins, and then show the efficacy of delivering them to autophagosome and simultaneously increasing autophagy activity”.

As for `OCCNCc1ccc(OCc2ccc(Cl)cc2)c(OCc2ccc(Cl)cc2)c1` [YT-5-1, 2-((3,4-bis((4-chlorobenzyl)oxy)benzyl)amino)ethan-1-ol], the “p62 protein oligomerization activity” value at p62 protein is “increasing the p62 protein oligomerization activity”. Moreover, in the experiment on LC3 [2], the “autophagy activity (level of LC3)” value is reported as “increasing the autophagy activity”. For the same molecule, the “p62 activation and oligomerization” value in the experiment with p62 and LC3 was “allow the activation and oligomerization of p62 proteins, and then show the efficacy of delivering them to autophagosome and simultaneously increasing autophagy activity”.

Regarding `OCCNCc1ccc(OCc2ccc(F)cc2)c(OCc2ccc(F)cc2)c1` [YT-5-2, 2-((3,4-bis((4-fluorobenzyl)oxy)benzyl)amino)ethan-1-ol], the “p62 protein oligomerization activity” value at p62 protein is on record as “increasing the p62 protein oligomerization activity”. Moreover, the “autophagy activity (level of LC3)” value with LC3 [2] is on record as “increasing the autophagy activity”. For the same molecule, the “p62 activation and oligomerization” value with p62 and LC3 was “allow the activation and oligomerization of p62 proteins, and then show the efficacy of delivering them to autophagosome and simultaneously increasing autophagy activity”.

Consider `OCCNCc1ccc(OCc2ccccc2)c(OCc2ccccc2)c1` [YTK-1105, 2-((3,4-bis(benzyloxy)benzyl)amino)ethan-1-ol], for which the “autophagy activity (level of LC3)” value with LC3 [1] was “increasing the autophagy activity”.

On to `OCCNCc1ccc(OCc2ccccc2)c(OCCc2ccccc2)c1` [YTK-1205, 2-((4-(benzyloxy)-3-phenethoxybenzyl)amino)ethan-1-ol], for which, in the experiment with LC3 [1], the “autophagy activity (level of LC3)” value is recorded as “increasing the autophagy activity”. Moreover, the “p62 activation and oligomerization” value in the experiment on p62 and LC3 is “allow the activation and oligomerization of p62 proteins, and then show the efficacy of delivering them to autophagosome and simultaneously increasing autophagy activity”.

`OCCNCCNCc1ccc(OCc2ccccc2)c(OCc2ccccc2)c1` [YTK-1108, 2-((2-((3,4-bis(benzyloxy)benzyl)amino)ethyl)amino)ethan-1-ol]: the “autophagy activity (level of LC3)” value with LC3 [1] was “increasing the autophagy activity”.

Consider `OCCNCc1cccc(OCc2ccc(F)cc2)c1` [YT 5-8, 2-((3-((4-fluorobenzyl)oxy)benzyl)amino)ethan-1-ol], for which the “p62 protein oligomerization activity” value on p62 protein is “increasing the p62 protein oligomerization activity”. In the experiment on LC3 [1], the “autophagy activity (level of LC3)” value was “increasing the autophagy activity”.

With `N=C(N)NCCNCc1cccc(OCc2ccccc2)c1` [YTK-107, 1-(2-((3-(benzyloxy)benzyl)amino)ethyl)guanidine], the “p62 protein oligomerization activity” value at p62 protein is reported as “increasing the p62 protein oligomerization activity”. Besides, the “autophagy activity (level of LC3)” value in the experiment with LC3 [2] is “increasing the autophagy activity”. Besides, the “p62 activation and oligomerization” value in the experiment with p62 and LC3 is “allow the activation and oligomerization of p62 proteins, and then show the efficacy of delivering them to autophagosome and simultaneously increasing autophagy activity”.
